In patent US8143290B2, “Chemical compounds 572” (AstraZeneca AB, priority 2006, dated 2012):

Target: T1, recombinant human GR (Homo sapiens, UniProt P04150)
T1 construct: purchased Panvera/Invitrogen P2812 (kit P2893)
T1 sequence (P04150 1-777): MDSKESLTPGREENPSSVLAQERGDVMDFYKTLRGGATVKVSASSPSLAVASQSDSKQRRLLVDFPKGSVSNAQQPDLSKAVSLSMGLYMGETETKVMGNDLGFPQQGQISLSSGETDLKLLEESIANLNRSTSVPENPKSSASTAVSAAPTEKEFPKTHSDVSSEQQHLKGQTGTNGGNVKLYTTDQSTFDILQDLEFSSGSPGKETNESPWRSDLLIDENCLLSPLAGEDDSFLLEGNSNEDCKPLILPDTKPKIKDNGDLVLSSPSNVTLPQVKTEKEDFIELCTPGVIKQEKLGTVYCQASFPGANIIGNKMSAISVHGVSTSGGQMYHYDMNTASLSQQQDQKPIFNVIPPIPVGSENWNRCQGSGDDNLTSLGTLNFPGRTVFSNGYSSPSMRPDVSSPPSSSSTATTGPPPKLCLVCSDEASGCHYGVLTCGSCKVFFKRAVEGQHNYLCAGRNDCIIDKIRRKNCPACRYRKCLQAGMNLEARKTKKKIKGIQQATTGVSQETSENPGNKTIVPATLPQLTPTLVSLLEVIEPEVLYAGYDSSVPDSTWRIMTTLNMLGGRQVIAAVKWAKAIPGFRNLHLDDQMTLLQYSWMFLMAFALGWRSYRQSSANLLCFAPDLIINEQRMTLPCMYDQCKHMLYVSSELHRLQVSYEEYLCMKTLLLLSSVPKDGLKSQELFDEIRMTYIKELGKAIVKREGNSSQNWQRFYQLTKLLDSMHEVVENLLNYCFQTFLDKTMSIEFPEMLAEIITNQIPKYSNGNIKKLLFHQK
Assay: Human Glucocorticoid Receptor (GR) Assay, fluorescence polarization
Type: binding
Details: GS Red tracer, incubated 2 h at r.t., XLfit model 205, read-out: GRhuFL_FP_v2 Mean IC50
Description: Human Glucocorticoid Receptor (GR) Assay
The assay is based on a commercial kit from Panvera/Invitrogen (Part number P2893). The assay technology is fluorescence polarization. […] The GR and Stabilizing Peptide reagents are stored at −70° C. while the GS Red is stored at −20° C. Also included in the kit are 1M DTT (Panvera, Part number P2325, stored at −20° C.) and GR Screening buffer 10× (Panvera, Part number P2814, stored at −70° C. initially but once thawed stored at r.t.). Avoid repeated freeze/thaws for all reagents. The GR Screening buffer 10× comprises 100 mM potassium phosphate, 200 mM sodium molybdate, 1 mM EDTA and 20% DMSO.
0% control was 100% DMSO and 100% control was […] Dexamethasone. Background solution (8 μL; assay buffer 10×, Stabilizing Peptide, DTT and ice cold MQ water) was added to the background wells. GS Red solution (7 μL; assay buffer 10×, Stabilizing Peptide, DTT, GS Red and ice cold water) was added to all wells except background wells. GR solution (7 μL; assay buffer 10×, Stabilizing Peptide, DTT, GR and ice cold water) was added to all wells. The plate was sealed and incubated in a dark at r.t. for 2 h.

| Compound | IC50 [nM] |
| --- | --- |
| C[C@H](NC(=O)CO)[C@H](Oc1ccc2c(cnn2-c2ccc(F)cc2)c1)c1ccc(C(F)(F)F)cc1 [Example 60, N-[(1R,2S)-1-[1-(4-fluorophenyl)indazol-5-yl]oxy-1-[4-(trifluoromethyl)phenyl]propan-2-yl]-2-hydroxy-acetamide] | 3.3 |
| CCC(=O)N[C@@H](C)[C@H](Oc1ccc2c(cnn2-c2ccc(F)cc2)c1)c1ccc(C(F)(F)F)cc1 [Example 61, N-[(1R,2S)-1-[1-(4-fluorophenyl)indazol-5-yl]oxy-1-[4-(trifluoromethyl)phenyl]propan-2-yl]propanamide] | 3.3 |
| Cc1cc2c(cnn2-c2ccc(F)cc2)cc1O[C@H](c1ccccc1)[C@H](C)NC(=O)C(F)(F)F [Example 62, 2,2,2-Trifluoro-N-[(1R,2S)-1-[1-(4-fluorophenyl)-6-methyl-indazol-5-yl]oxy-1-phenyl-propan-2-yl]acetamide] | 3.5 |
| Cc1cc2c(cnn2-c2ccc(F)cc2)cc1O[C@H](c1ccccc1)[C@H](C)NC(=O)C(C)(C)C [Example 63, N-[(1R,2S)-1-[1-(4-Fluorophenyl)-6-methyl-indazol-5-yl]oxy-1-phenyl-propan-2-yl]-2,2-dimethyl-propanamide] | 4.4 |
| COc1cccc([C@@H](Oc2cc3cnn(-c4ccc(F)cc4)c3cc2C)[C@H](C)NC(=O)C(F)(F)F)c1 [Example 65, 2,2,2-Trifluoro-N-[(1R,2S)-1-[1-(4-fluorophenyl)-6-methyl-indazol-5-yl]oxy-1-(3-methoxyphenyl)propan-2-yl]acetamide] | 3.8 |
| COc1cccc([C@@H](Oc2cc3cnn(-c4ccc(F)cc4)c3cc2C)[C@H](C)NC(=O)C(C)(C)C)c1 [Example 66, N-[(1R,2S)-1-[1-(4-Fluorophenyl)-6-methyl-indazol-5-yl]oxy-1-(3-methoxyphenyl)propan-2-yl]-2,2-dimethyl-propanamide] | 4.2 |
| COCCOCC(=O)N[C@@H](C)[C@H](Oc1ccc2c(cnn2-c2ccc(F)cc2)c1)c1cccc(OC)c1 [Example 71, N-[(1R,2S)-1-[1-(4-Fluorophenyl)indazol-5-yl]oxy-1-(3-methoxyphenyl)propan-2-yl]-2-(2-methoxyethoxy)acetamide] | 4.6 |
| C[C@H](NC(=O)C(C)(C)C)[C@@H](Cc1ccccc1)Oc1ccc2c(cnn2-c2ccc(F)cc2)c1 [Example 73, N-[(2S,3R)-3-[1-(4-Fluorophenyl)indazol-5-yl]oxy-4-phenyl-butan-2-yl]-2,2-dimethyl-propanamide] | 5.1 |
| C[C@H](NC(=O)CO)[C@@H](Cc1ccccc1)Oc1ccc2c(cnn2-c2ccc(F)cc2)c1 [Example 74, N-[(2S,3R)-3-[1-(4-Fluorophenyl)indazol-5-yl]oxy-4-phenyl-butan-2-yl]-2-hydroxy-acetamide] | 3.7 |
| COc1cccc([C@@H](Oc2ccc3c(cnn3-c3ccc(F)cc3)c2)[C@H](C)NC(=O)C(=O)OC(C)(C)C)c1 [Example 75, tert-Butyl [(1R,2S)-1-[1-(4-fluorophenyl)indazol-5-yl]oxy-1-(3-methoxyphenyl)propan-2-yl]carbamoylformate] | 5.3 |
| COc1cccc([C@@H](Oc2ccc3c(cnn3-c3ccc(F)cc3)c2)[C@H](C)NC(=O)C(=O)OC(C)C)c1 [Example 77, Propan-2-yl [(1R,2S)-1-[1-(4-fluorophenyl)indazol-5-yl]oxy-1-(3-methoxyphenyl)propan-2-yl]carbamoylformate] | 2.6 |
| CCOC(=O)C(=O)N[C@@H](C)[C@H](Oc1ccc2c(cnn2-c2ccc(F)cc2)c1)c1cccc(OC)c1 [Example 78, Ethyl [(1R,2S)-1-[1-(4-fluorophenyl)indazol-5-yl]oxy-1-(3-methoxyphenyl)propan-2-yl]carbamoylformate] | 3.2 |
| CNC(=O)C(=O)N[C@@H](C)[C@H](Oc1ccc2c(cnn2-c2ccc(F)cc2)c1)c1cccc(OC)c1 [Example 79, N-[(1R,2S)-1-[1-(4-Fluorophenyl)indazol-5-yl]oxy-1-(3-methoxyphenyl)propan-2-yl]-N′-methyl-oxamide] | 2.6 |
| COc1cccc([C@@H](Oc2ccc3c(cnn3-c3ccc(F)cc3)c2)[C@H](C)NC(=O)C(=O)N(C)C)c1 [Example 80, N-[(1R,2S)-1-[1-(4-Fluorophenyl)indazol-5-yl]oxy-1-(3-methoxyphenyl)propan-2-yl]-N′,N′-dimethyl-oxamide] | 3.7 |
| COc1cccc([C@@H](Oc2ccc3c(cnn3-c3ccc(F)cc3)c2)[C@H](C)NC(=O)c2ccc(C(F)(F)F)cc2)c1 [Example 83, N-((1R,2S)-1-(1-(4-fluorophenyl)-1H-indazol-5-yloxy)-1-(3-methoxyphenyl)propan-2-yl)-4-(trifluoromethyl)benzamide] | 5.8 |
| COc1cccc([C@@H](Oc2ccc3c(cnn3-c3ccc(F)cc3)c2)[C@H](C)NC(=O)c2ncco2)c1 [Example 84, N-((1R,2S)-1-(1-(4-fluorophenyl)-1H-indazol-5-yloxy)-1-(3-methoxyphenyl)propan-2-yl)oxazole-2-carboxamide] | 2.3 |
| COc1cccc([C@@H](Oc2ccc3c(cnn3-c3ccc(F)cc3)c2)[C@H](C)NC(=O)c2ccco2)c1 [Example 86, N-((1R,2S)-1-(1-(4-fluorophenyl)-1H-indazol-5-yloxy)-1-(3-methoxyphenyl)propan-2-yl)furan-2-carboxamide] | 3.8 |

Continued by falling IC50, values first:

| IC50 [nM] | Compound |
| --- | --- |
| 5.3 | COc1cccc([C@@H](Oc2ccc3c(cnn3-c3ccc(F)cc3)c2)[C@H](C)NC(=O)C(=O)NC(C)(C)C)c1 [Example 82, N-[(1R,2S)-1-[1-(4-Fluorophenyl)indazol-5-yl]oxy-1-(3-methoxyphenyl)propan-2-yl]-N′-tert-butyl-oxamide] |
| 4.1 | COc1cccc([C@@H](Oc2cc3cnn(-c4ccc(F)cc4)c3cc2C)[C@H](C)NC(=O)CO)c1 [Example 67, N-[(1R,2S)-1-[1-(4-Fluorophenyl)-6-methyl-indazol-5-yl]oxy-1-(3-methoxyphenyl)propan-2-yl]-2-hydroxy-acetamide] |
| 3.9 | Cc1cc2c(cnn2-c2ccc(F)cc2)cc1O[C@H](c1ccccc1)[C@H](C)NC(=O)CO [Example 64, N-[(1R,2S)-1-[1-(4-Fluorophenyl)-6-methyl-indazol-5-yl]oxy-1-phenyl-propan-2-yl]-2-hydroxy-acetamide] |
| 3.7 | C[C@H](NC(=O)C(F)(F)F)[C@@H](Cc1ccccc1)Oc1ccc2c(cnn2-c2ccc(F)cc2)c1 [Example 72, 2,2,2-Trifluoro-N-[(2S,3R)-3-[1-(4-fluorophenyl)indazol-5-yl]oxy-4-phenyl-butan-2-yl]acetamide] |
| 3.3 | COCC(=O)N[C@@H](C)[C@H](Oc1ccc2c(cnn2-c2ccc(F)cc2)c1)c1ccc(C(F)(F)F)cc1 [Example 59, N-[(1R,2S)-1-[1-(4-fluorophenyl)indazol-5-yl]oxy-1-[4-(trifluoromethyl)phenyl]propan-2-yl]-2-methoxy-acetamide] |
| 3.2 | COc1cccc([C@@H](Oc2ccc3c(cnn3-c3ccc(F)cc3)c2)[C@H](C)NC(=O)c2ccncn2)c1 [Example 88, N-((1R,2S)-1-(1-(4-fluorophenyl)-1H-indazol-5-yloxy)-1-(3-methoxyphenyl)propan-2-yl)pyrimidine-4-carboxamide] |
| 2.7 | COc1cccc([C@@H](Oc2ccc3c(cnn3-c3ccc(F)cc3)c2)[C@H](C)NC(=O)[C@H](C)O)c1 [Example 58, (2S)-N-[(1R,2S)-1-[1-(4-fluorophenyl)indazol-5-yl]oxy-1-(3-methoxyphenyl)propan-2-yl]-2-hydroxy-propanamide] |
| 2.2 | COc1cccc([C@@H](Oc2ccc3c(cnn3-c3ccc(F)cc3)c2)[C@H](C)NC(=O)C(N)=O)c1 [Example 76, N-[(1R,2S)-1-[1-(4-Fluorophenyl)indazol-5-yl]oxy-1-(3-methoxyphenyl)propan-2-yl]oxamide] |
| 2.1 | COc1cccc([C@@H](Oc2ccc3c(cnn3-c3ccc(F)cc3)c2)[C@H](C)NC(=O)c2cocn2)c1 [Example 85, N-((1R,2S)-1-(1-(4-fluorophenyl)-1H-indazol-5-yloxy)-1-(3-methoxyphenyl)propan-2-yl)oxazole-4-carboxamide] |
